Experimental data as given in patent US6429222B2, “1-(p-thienylbenzyl)imidazoles as agonists of angiotensin (1-7) receptors, processes for their preparation, their use, and pharmaceutical preparations comprising them” (priority 1999, dated 2002).

Legend:
[1] = test system: isolated, working rat hearts; assay: Test 3: Isolated, working rat hearts (Langendorff), coronary flow; design: species or system Wistar-Kyoto rats; conditions: 10^−6 mol/l; for Coronary flow: treated hearts, n=4
Source text: Pharmacol. 8 (Suppl. 10) (1986) S91-S99.
Test 3: Isolated, working rat hearts
Isolated hearts of Wistar-Kyoto rats (280-300 g body weight) are perfused with a constant perfusion pressure of 60 mmHg according to the method of Langendorff using an oxygen-saturated (95% O2, 5% CO2), nonrecirculating, modified Krebs-Henseleit buffer solution (118 mmol/l of NaCl, 4.7 mmol/l of KCl, 2.5 mmol/l of CaCl2, 1.6 mmol/l of MgSO4, 24.9 mmol/l of NaHCO3, 1.2 mmol/l of KH2PO4, 5.5 mmol/l of glucose, and 2.0 mmol/l of sodium pyruvate). For the measurement of the coronary flow, a catheter having an electromagnetic measuring head placed in the pulmonary artery was used. After a 15-minute equilibration period, the heart is converted into the working mode, in which a preload of 15 mmHg and an afterload of 60 mmHg is set. The working load of the heart remains constant during the entire test time of 90 minutes. Flow and pressure signals for the analysis are recorded by means of a PLUGSYS measuring system (Hugo Sachs Elektronik). The analysis of the data is carried out at a collection frequency of 500 Hz, averaged every 2 seconds, using the software Aquire Plus VI.21f (PO-NE-MAH).

[2] = test system: human platelet-rich plasma; assay: Test 4: Collagen-induced platelet aggregation in human platelet-rich plasma; type: cell-based; conditions: collagen + 30 μM compound, 37° C., 20 min incubation, n=6; collagen alone 92±2.7%
Protocol: The action of compounds of formula (I) on collagen-induced platelet aggregation was investigated in human platelet-rich plasma, which is described, for example, in G.V. Born et al., Nature (1962).
Human platelet-rich plasma (PRP) from 6 blood donors was incubated with the test compound at 37° C. for 20 min, then activated with collagen, and the maximal aggregation of the platelets was quantified in % via light transmission.

Compound: CCCCOC(=O)NS(=O)(=O)c1sc(CC(C)C)cc1-c1ccc(Cn2c(-c3ccccc3)nc(OC)c2C=O)cc1 [Example 2, 5-Formyl-4-methoxy-2-phenyl-1-[[4-[2-(n-butyloxycarbonylsulfonamido)-5-isobutyl-3-thienyl]phenyl]methyl]imidazole]
- heart rate ([1]; during the entire experiment): unchanged
- Coronary flow ([1]; time 0 min): 8.92 ± 0.68 mL/min
- Coronary flow ([1]; time 5 min): 11.29 ± 0.90 mL/min
- Coronary flow ([1]; time 10 min): 12.17 ± 0.74 mL/min
- Coronary flow ([1]; time 15 min): 12.22 ± 0.10 mL/min
- platelet aggregation [2]: 52±5.7 % aggregation
